Measurements taken from patent EP0325279A1, “Dehydrocholecalciferol derivatives” (F. HOFFMANN-LA ROCHE AG, priority 1988, dated 1989).
Several values for one entry are separate records, joined by “and”; a condition that tells them apart may be missing. Equal entries are not always repeated.

system: gezüchteten menschlichen Keratinocyten; assay: Morphological differentiation of cultured human keratinocytes (cell counts by cell type); type: cell-based; settings: Dosis 10⁻¹⁰ M

Compound	Anzahl Zellen (x10⁴): Basalzellen	Anzahl Zellen (x10⁴): Gesamtanzahl	Anzahl Zellen (x10⁴): Plattenepithelzellen	Anzahl Zellen (x10⁴): verhornte Plattenepithelzellen [x10⁴]
C=C1CC[C@H](O)C/C1=C/C=C1\CCC[C@]2(C)C([C@H](C)C/C=C/C(C)(C)O)=CC[C@@H]12 [Verbindung D, 25-Hydroxy-16,23E-bisdehydrocholecalciferol]	93±6 x10⁴	113±7 x10⁴	20±1 x10⁴	104±10
C=C1CC[C@H](O)C/C1=C/C=C1\CCC[C@]2(C)C([C@H](C)CC#CC(C)(C)O)=CC[C@@H]12 [Verbindung F, 25-Hydroxy-16-dehydro-23-didehydrocholecalciferol]	81±3 x10⁴	103±5 x10⁴	22±2 x10⁴	103±4
C=C1/C(=C\C=C2/CCC[C@]3(C)[C@@H]([C@H](C)CCCC(C)(C)O)CC[C@@H]23)C[C@@H](O)C[C@@H]1O [Verbindung X, 1,25-Dihydroxychalecalciferol, reference compound]	103±2 x10⁴ and 95±8 x10⁴ and 86±6 x10⁴	122±4 x10⁴ and 116±9 x10⁴ and 106±7 x10⁴	19±2 x10⁴ and 21±1 x10⁴ and 18±1 x10⁴	–

same assay, conditions: Dosis 10⁻⁶ M

Compound	Anzahl Zellen (x10⁴): Basalzellen	Anzahl Zellen (x10⁴): Gesamtanzahl	Anzahl Zellen (x10⁴): Plattenepithelzellen	Anzahl Zellen (x10⁴): verhornte Plattenepithelzellen [x10⁴]
C=C1CC[C@H](O)C/C1=C/C=C1\CCC[C@]2(C)C([C@H](C)C/C=C/C(C)(C)O)=CC[C@@H]12 [Verbindung D, 25-Hydroxy-16,23E-bisdehydrocholecalciferol]	68±1 x10⁴	94±3 x10⁴	26±2 x10⁴	144±7
C=C1CC[C@H](O)C/C1=C/C=C1\CCC[C@]2(C)C([C@H](C)CC#CC(C)(C)O)=CC[C@@H]12 [Verbindung F, 25-Hydroxy-16-dehydro-23-didehydrocholecalciferol]	55±2 x10⁴	84±4 x10⁴	29±1 x10⁴	137±7
C=C1/C(=C\C=C2/CCC[C@]3(C)[C@@H]([C@H](C)CCCC(C)(C)O)CC[C@@H]23)C[C@@H](O)C[C@@H]1O [Verbindung X, 1,25-Dihydroxychalecalciferol, reference compound]	64±6 x10⁴ and 57±4 x10⁴ and 51±5 x10⁴	95±7 x10⁴ and 83±5 x10⁴ and 73±7 x10⁴	31±1 x10⁴ and 26±1 x10⁴ and 22±2 x10⁴	–

same assay, conditions: Dosis 10⁻⁸ M

Compound	Anzahl Zellen (x10⁴): Basalzellen	Anzahl Zellen (x10⁴): Gesamtanzahl	Anzahl Zellen (x10⁴): Plattenepithelzellen	Anzahl Zellen (x10⁴): verhornte Plattenepithelzellen [x10⁴]
C=C1CC[C@H](O)C/C1=C/C=C1\CCC[C@]2(C)C([C@H](C)C/C=C/C(C)(C)O)=CC[C@@H]12 [Verbindung D, 25-Hydroxy-16,23E-bisdehydrocholecalciferol]	86±3 x10⁴	111±7 x10⁴	25±2 x10⁴	128±5
C=C1CC[C@H](O)C/C1=C/C=C1\CCC[C@]2(C)C([C@H](C)CC#CC(C)(C)O)=CC[C@@H]12 [Verbindung F, 25-Hydroxy-16-dehydro-23-didehydrocholecalciferol]	67±2 x10⁴	97±3 x10⁴	29±1 x10⁴	121±6
C=C1/C(=C\C=C2/CCC[C@]3(C)[C@@H]([C@H](C)CCCC(C)(C)O)CC[C@@H]23)C[C@@H](O)C[C@@H]1O [Verbindung X, 1,25-Dihydroxychalecalciferol, reference compound]	89±2 x10⁴ and 75±8 x10⁴ and 61±5 x10⁴	112±6 x10⁴ and 101±10 x10⁴ and 84±8 x10⁴	23±4 x10⁴ and 26±2 x10⁴ and 23±3 x10⁴	–

system: menschlicher promyelocytischer Tumorzellen HL-60; assay: Antiproliferative (AP) effect on HL-60 cells; type: cell-based; settings: Homo sapiens, concentration that reduces the cell number by 50%, read-out: ID50 (the source's name)
Source text: (§1) Zum Nachweis der Aktivität der Verbindungen der Formel I als Mittel zur Behandlung von neoplastischen Krankheiten wurden die antiproliferativen (AP) und die Differenzierung induzierenden Effekte (DI) der Verbindungen A bis F sowie die Anzahl menschlicher promyelocytischer Tumorzellen HL-60 ermittelt. In Tabelle 6 ist der AP Effekt als prozentuale Reduktion der Anzahl Zellen und als Konzentration ID₅₀, die die Zellenanzahl um 50% reduziert, angegeben. Der DI Effekt ist angegeben als Prozentsatz der differenzierten Zellen und als Konzentration ED₅₀ der Verbindungen, die eine 50%ige Differenzierung der Zellen bewirkt.

IC50 [nM]	Compound
1500	C=C1CC[C@H](O)C/C1=C/C=C1\CCC[C@]2(C)C([C@H](C)C/C=C/C(C)(C)O)=CC[C@@H]12 [Verbindung D, 25-Hydroxy-16,23E-bisdehydrocholecalciferol]
700	C=C1CC[C@H](O)C/C1=C/C=C1\CCC[C@]2(C)C([C@H](C)CC#CC(C)(C)O)=CC[C@@H]12 [Verbindung F, 25-Hydroxy-16-dehydro-23-didehydrocholecalciferol]

Compound	IC50 [nM]
C=C1/C(=C\C=C2/CCC[C@]3(C)[C@@H]([C@H](C)CCCC(C)(C)O)CC[C@@H]23)C[C@@H](O)C[C@@H]1O [Verbindung X, 1,25-Dihydroxychalecalciferol, reference compound]	20

same assay, conditions: Konzentration 0.01 (head prints x10 M)

Compound	% Reduktion der Anzahl Zellen [%]
C=C1/C(=C\C=C2/CCC[C@]3(C)[C@@H]([C@H](C)CCCC(C)(C)O)CC[C@@H]23)C[C@@H](O)C[C@@H]1O [Verbindung X, 1,25-Dihydroxychalecalciferol, reference compound]	6

same assay, conditions: Konzentration 0.1 (head prints x10 M)

Compound	% Reduktion der Anzahl Zellen [%]
C=C1CC[C@H](O)C/C1=C/C=C1\CCC[C@]2(C)C([C@H](C)C/C=C/C(C)(C)O)=CC[C@@H]12 [Verbindung D, 25-Hydroxy-16,23E-bisdehydrocholecalciferol]	12
C=C1CC[C@H](O)C/C1=C/C=C1\CCC[C@]2(C)C([C@H](C)CC#CC(C)(C)O)=CC[C@@H]12 [Verbindung F, 25-Hydroxy-16-dehydro-23-didehydrocholecalciferol]	13
C=C1/C(=C\C=C2/CCC[C@]3(C)[C@@H]([C@H](C)CCCC(C)(C)O)CC[C@@H]23)C[C@@H](O)C[C@@H]1O [Verbindung X, 1,25-Dihydroxychalecalciferol, reference compound]	5

same assay, conditions: Konzentration 1 (head prints x10 M)

Compound	% Reduktion der Anzahl Zellen [%]
C=C1CC[C@H](O)C/C1=C/C=C1\CCC[C@]2(C)C([C@H](C)C/C=C/C(C)(C)O)=CC[C@@H]12 [Verbindung D, 25-Hydroxy-16,23E-bisdehydrocholecalciferol]	12
C=C1CC[C@H](O)C/C1=C/C=C1\CCC[C@]2(C)C([C@H](C)CC#CC(C)(C)O)=CC[C@@H]12 [Verbindung F, 25-Hydroxy-16-dehydro-23-didehydrocholecalciferol]	10
C=C1/C(=C\C=C2/CCC[C@]3(C)[C@@H]([C@H](C)CCCC(C)(C)O)CC[C@@H]23)C[C@@H](O)C[C@@H]1O [Verbindung X, 1,25-Dihydroxychalecalciferol, reference compound]	16

same assay, conditions: Konzentration 10 (head prints x10 M)

Compound	% Reduktion der Anzahl Zellen [%]
C=C1CC[C@H](O)C/C1=C/C=C1\CCC[C@]2(C)C([C@H](C)C/C=C/C(C)(C)O)=CC[C@@H]12 [Verbindung D, 25-Hydroxy-16,23E-bisdehydrocholecalciferol]	17
C=C1CC[C@H](O)C/C1=C/C=C1\CCC[C@]2(C)C([C@H](C)CC#CC(C)(C)O)=CC[C@@H]12 [Verbindung F, 25-Hydroxy-16-dehydro-23-didehydrocholecalciferol]	8
C=C1/C(=C\C=C2/CCC[C@]3(C)[C@@H]([C@H](C)CCCC(C)(C)O)CC[C@@H]23)C[C@@H](O)C[C@@H]1O [Verbindung X, 1,25-Dihydroxychalecalciferol, reference compound]	66

same assay, conditions: Konzentration 100 (head prints x10 M)

Compound	% Reduktion der Anzahl Zellen [%]
C=C1CC[C@H](O)C/C1=C/C=C1\CCC[C@]2(C)C([C@H](C)C/C=C/C(C)(C)O)=CC[C@@H]12 [Verbindung D, 25-Hydroxy-16,23E-bisdehydrocholecalciferol]	46
C=C1CC[C@H](O)C/C1=C/C=C1\CCC[C@]2(C)C([C@H](C)CC#CC(C)(C)O)=CC[C@@H]12 [Verbindung F, 25-Hydroxy-16-dehydro-23-didehydrocholecalciferol]	58
C=C1/C(=C\C=C2/CCC[C@]3(C)[C@@H]([C@H](C)CCCC(C)(C)O)CC[C@@H]23)C[C@@H](O)C[C@@H]1O [Verbindung X, 1,25-Dihydroxychalecalciferol, reference compound]	84

same assay, conditions: Konzentration 1000 (head prints x10 M)

Compound	% Reduktion der Anzahl Zellen [%]
C=C1CC[C@H](O)C/C1=C/C=C1\CCC[C@]2(C)C([C@H](C)C/C=C/C(C)(C)O)=CC[C@@H]12 [Verbindung D, 25-Hydroxy-16,23E-bisdehydrocholecalciferol]	95
C=C1CC[C@H](O)C/C1=C/C=C1\CCC[C@]2(C)C([C@H](C)CC#CC(C)(C)O)=CC[C@@H]12 [Verbindung F, 25-Hydroxy-16-dehydro-23-didehydrocholecalciferol]	95

system: menschlicher promyelocytischer Tumorzellen HL-60; assay: Differentiation-inducing (DI) effect on HL-60 cells; type: cell-based; settings: Homo sapiens, concentration that causes 50% differentiation of the cells, read-out: ED50 (the source's name)
Source text: as §1

EC50 [nM]	Compound
2000	C=C1CC[C@H](O)C/C1=C/C=C1\CCC[C@]2(C)C([C@H](C)C/C=C/C(C)(C)O)=CC[C@@H]12 [Verbindung D, 25-Hydroxy-16,23E-bisdehydrocholecalciferol]
700	C=C1CC[C@H](O)C/C1=C/C=C1\CCC[C@]2(C)C([C@H](C)CC#CC(C)(C)O)=CC[C@@H]12 [Verbindung F, 25-Hydroxy-16-dehydro-23-didehydrocholecalciferol]

Compound	EC50 [nM]
C=C1/C(=C\C=C2/CCC[C@]3(C)[C@@H]([C@H](C)CCCC(C)(C)O)CC[C@@H]23)C[C@@H](O)C[C@@H]1O [Verbindung X, 1,25-Dihydroxychalecalciferol, reference compound]	20

same assay, conditions: Konzentration 0.01 (head prints x10 M)

Compound	Differenzierte Zellen (%)
C=C1/C(=C\C=C2/CCC[C@]3(C)[C@@H]([C@H](C)CCCC(C)(C)O)CC[C@@H]23)C[C@@H](O)C[C@@H]1O [Verbindung X, 1,25-Dihydroxychalecalciferol, reference compound]	3

same assay, conditions: Konzentration 0.1 (head prints x10 M)

Compound	Differenzierte Zellen (%)
C=C1CC[C@H](O)C/C1=C/C=C1\CCC[C@]2(C)C([C@H](C)C/C=C/C(C)(C)O)=CC[C@@H]12 [Verbindung D, 25-Hydroxy-16,23E-bisdehydrocholecalciferol]	1
C=C1CC[C@H](O)C/C1=C/C=C1\CCC[C@]2(C)C([C@H](C)CC#CC(C)(C)O)=CC[C@@H]12 [Verbindung F, 25-Hydroxy-16-dehydro-23-didehydrocholecalciferol]	4
C=C1/C(=C\C=C2/CCC[C@]3(C)[C@@H]([C@H](C)CCCC(C)(C)O)CC[C@@H]23)C[C@@H](O)C[C@@H]1O [Verbindung X, 1,25-Dihydroxychalecalciferol, reference compound]	11

same assay, conditions: Konzentration 1 (head prints x10 M)

Compound	Differenzierte Zellen (%)
C=C1CC[C@H](O)C/C1=C/C=C1\CCC[C@]2(C)C([C@H](C)C/C=C/C(C)(C)O)=CC[C@@H]12 [Verbindung D, 25-Hydroxy-16,23E-bisdehydrocholecalciferol]	2
C=C1CC[C@H](O)C/C1=C/C=C1\CCC[C@]2(C)C([C@H](C)CC#CC(C)(C)O)=CC[C@@H]12 [Verbindung F, 25-Hydroxy-16-dehydro-23-didehydrocholecalciferol]	12
C=C1/C(=C\C=C2/CCC[C@]3(C)[C@@H]([C@H](C)CCCC(C)(C)O)CC[C@@H]23)C[C@@H](O)C[C@@H]1O [Verbindung X, 1,25-Dihydroxychalecalciferol, reference compound]	19

same assay, conditions: Konzentration 10 (head prints x10 M)

Compound	Differenzierte Zellen (%)
C=C1CC[C@H](O)C/C1=C/C=C1\CCC[C@]2(C)C([C@H](C)C/C=C/C(C)(C)O)=CC[C@@H]12 [Verbindung D, 25-Hydroxy-16,23E-bisdehydrocholecalciferol]	17
C=C1CC[C@H](O)C/C1=C/C=C1\CCC[C@]2(C)C([C@H](C)CC#CC(C)(C)O)=CC[C@@H]12 [Verbindung F, 25-Hydroxy-16-dehydro-23-didehydrocholecalciferol]	21
C=C1/C(=C\C=C2/CCC[C@]3(C)[C@@H]([C@H](C)CCCC(C)(C)O)CC[C@@H]23)C[C@@H](O)C[C@@H]1O [Verbindung X, 1,25-Dihydroxychalecalciferol, reference compound]	68

same assay, conditions: Konzentration 100 (head prints x10 M)

Compound	Differenzierte Zellen (%)
C=C1CC[C@H](O)C/C1=C/C=C1\CCC[C@]2(C)C([C@H](C)C/C=C/C(C)(C)O)=CC[C@@H]12 [Verbindung D, 25-Hydroxy-16,23E-bisdehydrocholecalciferol]	31
C=C1CC[C@H](O)C/C1=C/C=C1\CCC[C@]2(C)C([C@H](C)CC#CC(C)(C)O)=CC[C@@H]12 [Verbindung F, 25-Hydroxy-16-dehydro-23-didehydrocholecalciferol]	55
C=C1/C(=C\C=C2/CCC[C@]3(C)[C@@H]([C@H](C)CCCC(C)(C)O)CC[C@@H]23)C[C@@H](O)C[C@@H]1O [Verbindung X, 1,25-Dihydroxychalecalciferol, reference compound]	98

same assay, conditions: Konzentration 1000 (head prints x10 M)

Compound	Differenzierte Zellen (%)
C=C1CC[C@H](O)C/C1=C/C=C1\CCC[C@]2(C)C([C@H](C)C/C=C/C(C)(C)O)=CC[C@@H]12 [Verbindung D, 25-Hydroxy-16,23E-bisdehydrocholecalciferol]	97
C=C1CC[C@H](O)C/C1=C/C=C1\CCC[C@]2(C)C([C@H](C)CC#CC(C)(C)O)=CC[C@@H]12 [Verbindung F, 25-Hydroxy-16-dehydro-23-didehydrocholecalciferol]	91
